According to publication PMC3262757 (Chemistry Central Journal, 2011):

What was measured:
JNK2 = format: cell-based
JNK1 = format: cell-based

CCOc1nc(NC(=O)Cc2cc(OC)c(NC(C)=O)cc2OC)cc(N)c1C#N [compound 2, 2-(4-acetylamino-2,5-dimethoxyphenyl)-N-(4-amino-5-cyano-6-ethoxypyridin-2-yl)acetamide]
IC50 (JNK2): ~1500 nM
IC50 (JNK1): ~1500 nM
